Structures can show the parent of a compound that is named as a salt.
Columns and labels:
[1] = target: T1, RORγ (Homo sapiens, UniProt P51449); assay: Jurkat cell luciferase assay (human IL17 promoter reporter, RORγt overexpression); format: cell-based; details: mean pIC50; detection limit of the assay 5
T1 construct: expressed in transfected cells
T1 sequence (P51449 1-497 isoform P51449-2): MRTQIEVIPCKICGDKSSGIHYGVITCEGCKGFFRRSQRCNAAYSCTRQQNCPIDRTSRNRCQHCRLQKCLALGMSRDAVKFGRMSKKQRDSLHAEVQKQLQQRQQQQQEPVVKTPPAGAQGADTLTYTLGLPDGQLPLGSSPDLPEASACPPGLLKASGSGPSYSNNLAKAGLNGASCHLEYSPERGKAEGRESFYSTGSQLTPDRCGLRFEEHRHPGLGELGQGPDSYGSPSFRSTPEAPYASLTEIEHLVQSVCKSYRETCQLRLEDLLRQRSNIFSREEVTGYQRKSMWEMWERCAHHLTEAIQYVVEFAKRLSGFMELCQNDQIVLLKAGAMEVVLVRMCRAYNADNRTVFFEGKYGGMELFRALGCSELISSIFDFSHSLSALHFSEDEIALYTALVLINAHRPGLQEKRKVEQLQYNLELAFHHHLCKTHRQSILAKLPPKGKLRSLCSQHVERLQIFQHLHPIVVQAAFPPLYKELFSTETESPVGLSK
From the text: RORγ is known to bind to a CNS (conserved non-coding sequences) enhancer element in the IL17 promoter. In this assay, RORγ activity is indirectly assessed using a luciferase reporter construct which contains the human IL17 promoter having the RORγ-specific CNS enhancer element. Inhibition of RORγ activity by a compound will result in a decrease in luciferase activity of Jurkat cells transfected with the reporter construct.
. For the 1.1 Kb fragment, PCR was used to amplify human IL17 proximal promoter region from genomic DNA of 293T cells using primers as follows: forward primer, 5′-[…]-3′ (SEQ ID NO. 4) (Xhol site is underlined) and reverse primer, 5′-[…]-3′ SEQ ID NO. 5) (HindIII site is underlined). The 1.1 kb DNA bands were excised, purified, and inserted into pMD19-T Simple Vector (Takara). After DNA sequencing confirmation, the 1.1 kb DNA was digested with XhoI and HindIII and inserted into XhoI/HindIII sites of pGL4.31[luc2P/GAL4UAS/Hygro] (Promega) to generate the pIL17-lkb-luc reporter construct. For the 1.9 Kb fragment, PCR was used to amplify human IL17 promoter region from genomic DNA using primers as follows: forward primer, 5′-[…]-3′ (SEQ ID NO. 6) (KpnI site is underlined) and reverse primer, 5′-[…]-3′ (SEQ ID NO. 7)(XhoI site is underlined). The resulting 1.9 kb DNA bands were excised, gel purified, and cloned into a pMD19-T Simple Vector (Takara). […] The 1.9 kb DNA fragment was released by double digestion with KpnI and XhoI and inserted into pIL17-lkb-luc to generate the luciferase reporter plasmid “pIL17-3kb-CNS-luc.” To overexpress RORγt, the full-length cDNA of human RORγt identical to the published sequence NM13 001001523 was cloned into pcDNA3.1 at the KpnI-NotI cloning sites to generate the RORγt overexpression plasmid “CDNA3.1DhRORγ49-8”. […]
Compounds were dissolved in DMSO at three concentrations, 10 mM, 400 uM and 16 uM, and were dispensed into 384-wells assay plate at 40 nl, 12.5 nl, 5 nl respectively. The volume was adjusted with pure DMSO to a give a final uniform volume of 40 nl Jurkat cells described above were counted and centrifuged. […]

[2] = In vitro percutaneous study (Franz diffusion cells, aqueous cream); format: in vitro ADME, human
From the text: The in vitro percutaneous study is aimed to predict the level of percutaneous penetration obtained for a compound in a topical formulation for psoriasis. This assay coupled with the intrinsic potency of the compound are used to predict the likelihood of success of a compound to engage the target. The higher the ratio of the percutaneous penetration to the intrinsic potency, the higher the ratio of local skin concentration to the intrinsic potency and therefore the higher the chance of a compound to engage the target in a topical formulation.
The compounds were manufactured in a modified aqueous cream at pH=6.
The study was conducted with dermatomed abdominal human skin sourced from three skin donors using 2 cm2 Franz diffusion cells. The receiving fluid consisted of Bovine serum albumin (4% w/v) in 0.1% w/v sodium azide in Phospate Buffer Saline and was heated at 37° C. in order to obtain 32° C. at the skin surface. The cream formulation was applied on the donor side at a 10 mg dose, i.e. 5 mg/cm^2. The samples taken at the following time points: t=0, 3, 6, 9 and 24 h. The receiver samples were then assayed using a method based upon protein precipitation with acetonitrile followed by LC/MS/MS analysis. The percutaneous flux (in ng/cm^2/hr) was determined using the individual API (in a multiple composition) that had permeated into the receiver compartment over 24 hrs per cm^2.

Row | SMILES | IC50 [1] | Flux over 24 hrs ([2]; 1.0% w/w in aqueous cream pH=6, 5 mg/cm^2, human skin from three donors) | ratio of percutaneous penetration (Flux) to intrinsic potency (Th17 cell differentiation assay IC50) ([2]; ranking among the three compounds tested)
1 | Cc1c(CN2CCN(C(=O)C3CCCC3)[C@@H](C)C2)cc(F)cc1NC(=O)c1cccc(C#N)c1 [Example 66, (S)-3-cyano-N-(3-((4-(cyclopentanecarbonyl)-3-methylpiperazin-1-yl)methyl)-5-fluoro-2-methylphenyl)benzamide] | ~5.01 nM | 3.43 ng/cm^2/hr | highest ratio
2 | Cc1c(CN2CCN(C(=O)C3CCCC3)[C@@H](C)C2)cc(Cl)cc1NC(=O)c1cccc(C#N)c1 [Example 193, (S)-N-(5-chloro-3-((4-(cyclopentanecarbonyl)-3-methylpiperazin-1-yl)methyl)-2-methylphenyl)-3-cyanobenzamide, trifluoroacetic acid salt] | ~2.51 nM | – | –

From patent US10005731B2, “Modulators of the retinoid-related orphan receptor gamma (ROR-gamma) for use in the treatment of autoimmune and inflammatory diseases” (Glaxo Group Limited, priority 2012, dated 2018)
